Consider 2 compounds from patent US20160345582A1, “HERBICIDE COMPOSITIONS FOR WEED CONTROL” (Valent U.S.A., Corporation, priority 2015, published 2016).

The subject of one experiment is Waterhemp. Briefly: Field test 2013 (Example 2), post emergence weed control in corn. The class given is in vivo, Amaranthus tuberculatus. The conditions noted are these: 30 DAT, applied at V5 corn stage.
A further experiment relates to Fall Panicum. The description is as above. The format is in vivo. Conditions: Study 3; 30 DAT; mesotrione 105, pyroxasulfone 90 g ai/ha; applied at V5 corn stage.
Experiment [1] relates to Yellow Nutsedge. The experiment is described as above. The format is in vivo, Cyperus esculentus. The conditions noted are these: Study 7; 30 DAT; topramezone 18.4, pyroxasulfone 90 g ai/ha; applied at V5 corn stage.
The subject of another experiment is Foxtail. The experiment is described as above. The class given is in vivo, Setaria species. The conditions noted are these: Study 6; 30 DAT; topramezone 18.4, pyroxasulfone 90 g ai/ha; applied at V5 corn stage.
Another experiment deals with Annual Grass. The experiment is described as follows: Field test 2011 (Example 1), post emergence weed control in corn. The format is in vivo. The conditions noted are these: Study 2; 30 DAT; topramezone 18.4, pyroxasulfone 90 g ai/ha; applied at V5 corn stage, weeds 4 to 10 inches. As for the experimental part: (§1) In 2011, two field tests were conducted using similar protocols. Both studies were completed in Indiana, United States. Weeds were 4 to 10 inches in height at time of application. Untreated checks were included in the trial, however pyroxasulfone alone is not effective for post emergence weed control and was therefore not included as a standalone treatment. Roundup Ready corn (Zea maize) was used in the test as the crop plant utilizing a natural population of weeds. All of the treatments contained non-ionic surfactant at 0.25% v/v and were applied at the V5 corn growth stage. Applications were made utilizing a hand boom sprayer with application area for each treatment equating to 10 feet by 200 feet.
(§2) Topramezone was administered at 18.4 grams/hectare. Pyroxasulfone was administered at 90 grams/hectare.
(§3) Thirty days after treatment (“DAT”) readings were taken to determine the survival of Ivyleaf Morningglory, Yellow Nutsedge, Velvetleaf and Annual Grass. Survival ratings were taken by counting the number of alive and dead plants at the time of the reading. All data was analyzed using Bartlett's test and with p value of […] for determining significance of the results. The Effect of Topamezone and Pyroxasulfone on Weeds (% Control).”

In experiment [2] the test system is Velvetleaf. Described as above. The class given is in vivo, Abutilon theophrasti. The conditions noted are these: Study 2; 30 DAT; topramezone 18.4, pyroxasulfone 90 g ai/ha; applied at V5 corn stage, weeds 4 to 10 inches. As for the experimental part:
as §1, §2, §3

Experiment [3] concerns Yellow Nutsedge. The description is as above. Conditions: Study 1; 30 DAT; topramezone 18.4, pyroxasulfone 90 g ai/ha; applied at V5 corn stage, weeds 4 to 10 inches. The class given is in vivo, Cyperus esculentus. As for the experimental part: as §1, §2, §3
A further experiment relates to Common Ragweed. Briefly: Field test 2013 (Example 2), post emergence weed control in corn. The class given is in vivo, Ambrosia artemisiifolia. The conditions noted are these: Study 4; 30 DAT; topramezone 18.4, pyroxasulfone 90 g ai/ha; applied at V5 corn stage.
For another experiment, the system named is Palmer Amaranth. Described as above. The class given is in vivo, Amaranthus palmeri. Conditions: Study 7; 30 DAT; topramezone 18.4, pyroxasulfone 90 g ai/ha; applied at V5 corn stage.
Another experiment concerns Giant Ragweed. The experiment is described as above. The class given is in vivo, Ambrosia trifida. Conditions: Study 7; 30 DAT; topramezone 18.4, pyroxasulfone 90 g ai/ha; applied at V5 corn stage.
Another experiment deals with Ivyleaf Morningglory. Briefly: Field test 2011 (Example 1), post emergence weed control in corn. The class given is in vivo, Ipomoea hederacea. Conditions: Study 1; 30 DAT; topramezone 18.4, pyroxasulfone 90 g ai/ha; applied at V5 corn stage, weeds 4 to 10 inches. As for the experimental part: as §1, §2, §3
The subject of another experiment is Barnyardgrass. Briefly: Field test 2013 (Example 2), post emergence weed control in corn. The format is in vivo, Echinochloa crus-galli. The conditions noted are these: 30 DAT, topramezone 18.4, pyroxasulfone 90 g ai/ha, applied at V5 corn stage.
The test system of experiment [4] is Velvetleaf. Described as above. The class given is in vivo, Abutilon theophrasti. The conditions noted are these: Study 9; 30 DAT; topramezone 18.4, pyroxasulfone 90 g ai/ha; applied at V5 corn stage.
The subject of another experiment is Broadleaf signalgrass. Described as above. The format is in vivo, Brachiaria platyhylla. Conditions: Study 7; 30 DAT; topramezone 18.4, pyroxasulfone 90 g ai/ha; applied at V5 corn stage.
Another experiment deals with Giant Foxtail. Described as above. The format is in vivo, Setaria faberi. Conditions: Study 5; 30 DAT; topramezone 18.4, pyroxasulfone 90, atrazine 840 g ai/ha; applied at V5 corn stage.

As to `CS(=O)(=O)c1ccc(C(=O)C2C(=O)CCCC2=O)c([N+](=O)[O-])c1` [Mesotrione, 2[4-(methylsulfonyl)-2-nitrobenzoyl]cyclohexane-1,3-dione], in the experiment with Waterhemp (Study 3, mesotrione 105, pyroxasulfone 90 g ai/ha), the “% Control Waterhemp” value was 80%. Also, in the experiment on Fall Panicum, the “% Control Fall Panicum” value is reported as 98%.
On to `Cc1c(C(=O)c2cnn(C)c2O)ccc(S(C)(=O)=O)c1C1=NOCC1` [Topramezone, [3-(4,5-dihydro-1,2-oxazol-3-yl)-4-mesyl-o-tolyl](5-hydroxy-1-methylpyrazol-4-yl)methanone], for which the “% Control Yellow Nutsedge” value with Yellow Nutsedge [1] turned out to be 60%; with Yellow Nutsedge [3] it was 73%. The “% Control Foxtail” value with Foxtail is reported as 98%. Further, in the experiment on Annual Grass, the “% Control Annual Grass” value is reported as 33%. Further, the “% Control Waterhemp” value is reported as 94% in the experiment with Waterhemp (Study 6, topramezone 18.4, pyroxasulfone 90 g ai/ha) and 90% with Waterhemp (Study 8, topramezone 18.4, pyroxasulfone 90 g ai/ha). Further, the results for the “% Control Velvetleaf” value with Velvetleaf [2] and with Velvetleaf [4] were 95% and 90%, respectively. Further, the “% Control Common Ragweed” value in the experiment on Common Ragweed is listed as 94%. Besides, the “% Control Palmer Amaranth” value with Palmer Amaranth came out at 93%. Further, the “% Control Giant Ragweed” value in the experiment with Giant Ragweed amounted to 91%. Moreover, the “% Control Ivyleaf Morningglory” value in the experiment with Ivyleaf Morningglory came to 68%. Further, the “% Control Barnyardgrass” value with Barnyardgrass (Study 7) stood at 80%; in the experiment with Barnyardgrass (Study 9), 93%. In addition, the “% Control Broadleaf signalgrass” value in the experiment with Broadleaf signalgrass was 90%. In addition, in the experiment with Giant Foxtail, the “% Control Giant Foxtail” value is 87%.
